In patent US6492137B1, “Response element compositions and assays employing same” (The Salk Institute for Biological Studies, priority 1989, dated 2002):

Target: T1, RARα (Homo sapiens, UniProt P10276)
T1 sequence (P10276 1-462): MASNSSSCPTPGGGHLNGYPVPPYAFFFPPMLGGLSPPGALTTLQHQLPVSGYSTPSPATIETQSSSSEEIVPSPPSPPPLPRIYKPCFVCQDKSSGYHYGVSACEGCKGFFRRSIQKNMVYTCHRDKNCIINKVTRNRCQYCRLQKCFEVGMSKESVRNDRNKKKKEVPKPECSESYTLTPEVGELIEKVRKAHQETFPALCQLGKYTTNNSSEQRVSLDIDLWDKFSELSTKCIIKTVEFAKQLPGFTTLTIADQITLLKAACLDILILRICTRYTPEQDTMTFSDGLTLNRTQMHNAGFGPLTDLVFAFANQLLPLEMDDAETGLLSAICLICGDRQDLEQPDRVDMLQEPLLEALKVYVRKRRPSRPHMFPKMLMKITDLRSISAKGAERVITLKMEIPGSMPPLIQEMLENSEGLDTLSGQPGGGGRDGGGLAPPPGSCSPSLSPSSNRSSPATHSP
Assay: ΔSV-CAT reporter cotransfection assay in CV-1 cells with RARα expression plasmid, ±RA
Format: cell-based
Parameters: expressed in transfected cells; host or cells: CV-1 (monkey kidney)
Conditions: RA 1 μM
Description: Receptor expression plasmids used in the following cotransfection assays have been described previously (pRShTRβ [see Thompson, et al., Proc. Natl. Acad. Sci. U.S.A. 86: 3494-3498 (1989)]; pRShRARα [see Giguere, et al., Nature 330: 624-629 (1987)]; pRShRARβ and pRshRARγ [see Ishikawa, et al., Mol. Endocrinol, 4: 837-844 (1990)]; and pRShVDR, [Schule, et al., Cell 61: 497-504 (1990)]. A basal reporter plasmid ΔSV-CAT was constructed by replacing the TK promoter in TK-CAT [Damm, et al., Nature 339: 593-597 (1989)] with the SphI-HindIII fragment of the SV40 early promoter. All of the recombinant CAT reporter plasmids used herein harbor a single copy of the indicated oligonucleotides at the unique HindIII site upstream of the SV40 promoter. Identity of the inserted oligonucleotides was confirmed by sequencing. To improve production of receptor proteins in COS cells, a new eukaryotic expression vector pCMX was prepared by modifying the plasmid CDM8 [Seed, B., Nature 329: 840-842 (1987)]. The CDM8 was cut with MluI and StuI in order to release the DNA fragment encoding the CMV/T7 promoter, SV40 small t intron/poly A signal, polyoma virus enhancer/origin, and SV40 enhancer/origin. The resulting fragment was ligated to a larger fragment of PvuII-digested PUC19. An internal deletion was introduced between unique BamHI and BclI sites present in the DCM8 portion. The stuffer sequence flanked by XbaI sites was replaced with a synthetic polylinker coding for 5′-KpnI/Asp718-EcoRV-BamHI -MscI-NheI-3′, followed by a stretch of 5′-[…]-3′ (SEQ ID NO:48) which can function as a universal termination signal for protein translation. The coding sequence of the luciferase [de Wet, et al., Mol. Cell. Biol. 7: 725-737 (1987)] and human TRβ, RARα, and VDR was placed in the polylinker region of the pCMX, generating pCMX-LUC, Pcmx-Htrβ, pCMX-hRARα, and pCMX-hVDR, respectively. The translation start site of the RARα was modified to […] by attaching the synthetic linker encoding a consensus translation start signal [Hollenberg, et al., Cell 55: 899-906 (1988)]. […]

MHC-N: 23-nucleotide core of the wild-type sequence (MHC-TRE) (SEQ ID NO:14) (AGCTGGAGGTGACAGGAGGACAGCAAGCT; DNA, backbone not given here; further chemistry not fully specified)
RA response (in words): not RA response
